Experimental data as given in patent US4727090A, “Process for preparing and therapeutical applications of the 2,4,6-triiodophenol” (Bislak, S.A., priority 1983, dated 1988).
Like-named read-outs stand apart in the source and are kept apart here.

Key:
[1] = system: acetic acid induced pullings; experiment: Writhing syndrome test (acetic acid); assay type: in vivo, mice; settings: 10 mg/kg oral; for inhibition at 10 mg/kg: Mus musculus, po, read-out: % INHIB. (pullings)
Method: Irritant substance: acetic acid at 0.5% injected via intraperitoneal.
Foundation of the method consists in provoking a dolorous syndrome by pulling and torsion of the stomach and the hind legs of the animals.
These pullings or stretchings are calculated during a certain time, using it as the measure of the provoked ache.
Mice of about 22 g by weight were used, animals were left under abstinence during 24 hours before carrying out the test.
Mice were previously selected as to each individual response to the dolorous stimulus provoked by an intraperitoneal injection of 0.2 ml of an acetic acid aqueous solution at the 0.5%. Valid animals for realizing the test are those which respond within a margin of 15-35 pullings in about 5 to 15 minutes after the injection. The remaining animals are not useful.
Medication is realized via oral with the help of an esophageal cannula.
White lot: Administration of 0.1 ml of CMC 1% for each 10 g of corporal weight.
2,4,6-triiodophenol lot: Administration of 10 mg/kg of the product, suspended in CMC of 1%.
Aspirin-Lysin lot (Solusprin): Administration of 500 mg/kg aspirin, dissolved at 1%.
After medication, one has to wait 20 minutes for injecting 0.2 ml acetic acid of 0.5% via intraperitoneal, calculating the number of pullings during 5 minutes. […]
The test was carried out in 9 mice in each lot.

[2] = system: granuloma formed around cotton implant; experiment: Cotton implant granuloma test; assay type: in vivo, rats; settings: 72 hours
Method: (B) To a group of 10 rats of about 200-225 g is implanted at the dorsal zone, subcutaneously, balled cotton (about 9 mg) impregnated and afterwards dried with a solution of medicamentous substance and which amount is known.
We use as reference Dexamethasone and controls without medicament.
After 72 hours, once the animal is sacrificed, the granuloma formed around the implant is extracted and weighed, after drying at 100° C.
The antiinflammatory reduces the weight of the granuloma.

[3] = system: pressure; experiment: Systemic arterial and portal pressure in cardiovascular patients (hypotensor action); assay type: in vivo; settings: 30 mg/day intramuscular
Text: (§1) The technology used to show the hemodynamic changes was of the non-invasivetype, as in this way experiments can be repeated and are completely innoxious for the patient. Of all the non-invasive methods of diagnosis we selected the most reliable of actual conditions, which is the method of ultrasounds (echo and Doppler's effects). The bidimensional echocardiography in real time, combined with pulsatile Doppler and the bidimensional vascular echography combined with pulsatile Doppler hemodynamic, are actually the two most reliable non-invasive techniques for the study of the anatomic changes and macroscopic hemodynamics with regard to the cardiovascular apparatus. That's why we used for the study of the clinical effects of the 2,4,6-triiodophenol an echo-Doppler trade mark ATL (Mark V), being the transmission frequency of 3 MHz, as well as a continuous Doppler trade mark SONICAID of 4 and 8 MHz.
(§2) Patients were divided in four statistically acceptable groups (50 in each group), comparing the results obtained with this medicament before, during and after the treatment.
(§3) Methodologically there are practiced echographical cuts in real time of the heart, big vases, supra-aortic trunks, abdominal aorta, portal and caval systems and iliac and femoral arteries, obtaining fluxmetric samples Doppler in all the mentioned cardiac cavities and blood vessels to study the sense of the flow, outflow (stream) or volume of flow and the hemodynamic features of the sanguineous flow.
(§4) Hereunder we expose the clinical results obtained after the administration during three months of the 2,4,6-triiodophenol in 200 cardiovascular patients.
(§5) Sick persons were divided in 4 groups; (1) 50 patients with cerebral vascular insufficiency, (2) 50 patients with coronary insufficiency, (3) 50 patients with hepatic insufficiency and (4) 50 patients with peripheral vascular insufficiency of the lower extremities. All these persons received an intramuscular administration, a dosage of 30 mg/day of 2,4,6-triiodophenol, carrying out controls at the first, second and third month of all angiohemodynamic parameters, supposing a total of 600 controls (150 per each group after the three months).

[4] = Tolerability after three months administration in 200 cardiovascular patients; assay type: in vivo
Method: as §4, §5

[5] = system: arthrosis and atherosclerosis patients; experiment: Summary of 175 clinic cases treated; assay type: in vivo
Text: Summary of 175 clinic cases treated with 2,4,6-triiodophenol.

[6] = Solubility; assay type: physicochemical
[7] = system: cardiac contractility; experiment: Cardiac contractility in cardiovascular patients (inotropic effect); assay type: in vivo; settings: 30 mg/day intramuscular
Text: as §1, §2, §3, §4, §5

[8] = cerebral atherosclerosis, 37 patients
[9] = cervical arthrosis, 34 patients
[10] = obliterant atherosclerosis, 14 patients
[11] = vertebral arthrosis, 56 patients

## Oc1c(I)cc(I)cc1I [2,4,6-triiodophenol]
[1]; 20'
  Total No. pullings: 14
  inhibition at 10 mg/kg: 88.4%
[1]; 30'
  Total No. pullings: 9
  inhibition at 10 mg/kg: 83.9%
[1]; 100'
  Total No. pullings: 9
  inhibition at 10 mg/kg: 86.1%
[2]; 100 micrograms per implant
  % Reduction of the granuloma (Average): 19%
[2]; 200 micrograms per implant
  % Reduction of the granuloma (Average): 28%
[2]; 400 micrograms per implant
  % Reduction of the granuloma (Average): 44%
[3]; 1st month
  Portal pressure, variation (Δ %): -8%
  Systemic arterial pressure, variation (Δ %): -3%
[3]; 2nd month
  Portal pressure, variation (Δ %): -11%
  Systemic arterial pressure, variation (Δ %): -5%
[3]; 3rd month
  Portal pressure, variation (Δ %): -13%
  Systemic arterial pressure, variation (Δ %): -6%
[4]; iodine concentration of the product
  Thyroid function: does not alter the thyroid function
[4]; three months administration, 30 mg/day intramuscular
  Toxic effect or secondary effects of clinical importance: does not produce any toxic effect or secondary effects of clinical importance in none of the patients
[5]; [8]
  % obtained results, B. (good): 6,25%
  % obtained results, E. (excellent): 81,25%
  % obtained results, N. (null): 3,15%
  % obtained results, R. (regular): 9,35%
[5]; [9]
  % obtained results, B. (good): 3,22%
  % obtained results, E. (excellent): 90,34%
  % obtained results, N. (null): 3,22%
  % obtained results, R. (regular): 3,22%
[5]; hip arthrosis, 13 patients
  % obtained results, B. (good): 23,10%
[5]; knee arthrosis, 16 patients
  % obtained results, B. (good): 12,5%
  % obtained results, E. (excellent): 81,25%
  % obtained results, R. (regular): 6,25%
[5]; lumbar arthrosis, 4 patients
  % obtained results, B. (good): 25%
  % obtained results, E. (excellent): 50%
  % obtained results, R. (regular): 25%
[5]; obliterant arthrosis, 1 patient
  % obtained results, E. (excellent): 100%
[5]; [10]
  % obtained results, B. (good): 7,15%
  % obtained results, E. (excellent): 92,85%
[5]; total 175 patients
  (B) Good result, % of patients: 7,43%
  (B) Good result, number of patients: 13
  (E) Excellent result, % of patients: 82,86%
  (E) Excellent result, number of patients: 145
  (N) Null result, % of patients: 1,71%
  (N) Null result, number of patients: 3
  (R) Regular result, % of patients: 8,00%
  (R) Regular result, number of patients: 14
[5]; [11]
  % obtained results, B. (good): 10,42%
  % obtained results, E. (excellent): 83,33%
  % obtained results, R. (regular): 6,25%
[6]; alkali solutions
  Solubility in alkali solutions: soluble
[6]; chloroform and dichloromethane
  Solubility in chloroform and dichloromethane: very soluble
[6]; ethylic and propylic alcohols, acetone and sulfuric ether
  Solubility in organic dissolvents: somewhat soluble
[6]; water
  Solubility in water: not very soluble
[7]; 1st month
  Ejection fraction, variation (Δ %): -9,1%
  Ejection volume, variation (Δ %): -9%
  Telediastolic volume, variation (Δ %): -3%
  Telesystolic volume, variation (Δ %): +8%
[7]; 2nd month
  Ejection fraction, variation (Δ %): -8,8%
  Ejection volume, variation (Δ %): -8,4%
  Telediastolic volume, variation (Δ %): -5%
  Telesystolic volume, variation (Δ %): +11%
[7]; 3rd month
  Ejection fraction, variation (Δ %): -8,6%
  Ejection volume, variation (Δ %): -8%
  Telediastolic volume, variation (Δ %): -6%
  Telesystolic volume, variation (Δ %): +13%
